# Measured values as given in article doi:10.1101/2024.08.13.607785v1 (biorxiv, 2024).
# Where two headings read alike, the source gives them in different places.
# Key:
# Experiment in all cases: biochemical
# Parameters in all cases: species or system mixed lysate of K562, MV4-11, THP-1, NCI-H1155
# [1] = biological target: Cyclin-dependent kinase 13 ; CDK13 ; Q14004 (Homo sapiens, UniProt Q14004)
# [2] = biological target: Cyclin-dependent kinase 16 ; CDK16 ; Q00536 (Homo sapiens, UniProt Q00536)
# Chain of Cyclin-dependent kinase 16 ; CDK16 ; Q00536 (Q00536 whole entry, one chain of several): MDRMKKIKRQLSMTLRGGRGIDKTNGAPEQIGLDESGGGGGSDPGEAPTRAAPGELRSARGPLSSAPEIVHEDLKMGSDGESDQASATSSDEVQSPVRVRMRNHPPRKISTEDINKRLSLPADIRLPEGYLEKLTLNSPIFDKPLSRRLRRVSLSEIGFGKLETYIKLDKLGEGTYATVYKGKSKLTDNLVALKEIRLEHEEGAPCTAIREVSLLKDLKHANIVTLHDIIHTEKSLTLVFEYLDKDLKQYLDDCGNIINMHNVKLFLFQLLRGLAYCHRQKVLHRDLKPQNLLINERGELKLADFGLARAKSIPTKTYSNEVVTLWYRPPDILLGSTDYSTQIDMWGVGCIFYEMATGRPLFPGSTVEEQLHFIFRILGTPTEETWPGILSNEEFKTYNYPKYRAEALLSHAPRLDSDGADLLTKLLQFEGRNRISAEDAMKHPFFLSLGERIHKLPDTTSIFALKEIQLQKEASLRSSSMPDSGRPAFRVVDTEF
# [3] = biological target: T1, Cyclin-dependent kinase-like 5 ; CDKL5 ; O76039 (Homo sapiens, UniProt O76039)
# T1 sequence (O76039 1-960): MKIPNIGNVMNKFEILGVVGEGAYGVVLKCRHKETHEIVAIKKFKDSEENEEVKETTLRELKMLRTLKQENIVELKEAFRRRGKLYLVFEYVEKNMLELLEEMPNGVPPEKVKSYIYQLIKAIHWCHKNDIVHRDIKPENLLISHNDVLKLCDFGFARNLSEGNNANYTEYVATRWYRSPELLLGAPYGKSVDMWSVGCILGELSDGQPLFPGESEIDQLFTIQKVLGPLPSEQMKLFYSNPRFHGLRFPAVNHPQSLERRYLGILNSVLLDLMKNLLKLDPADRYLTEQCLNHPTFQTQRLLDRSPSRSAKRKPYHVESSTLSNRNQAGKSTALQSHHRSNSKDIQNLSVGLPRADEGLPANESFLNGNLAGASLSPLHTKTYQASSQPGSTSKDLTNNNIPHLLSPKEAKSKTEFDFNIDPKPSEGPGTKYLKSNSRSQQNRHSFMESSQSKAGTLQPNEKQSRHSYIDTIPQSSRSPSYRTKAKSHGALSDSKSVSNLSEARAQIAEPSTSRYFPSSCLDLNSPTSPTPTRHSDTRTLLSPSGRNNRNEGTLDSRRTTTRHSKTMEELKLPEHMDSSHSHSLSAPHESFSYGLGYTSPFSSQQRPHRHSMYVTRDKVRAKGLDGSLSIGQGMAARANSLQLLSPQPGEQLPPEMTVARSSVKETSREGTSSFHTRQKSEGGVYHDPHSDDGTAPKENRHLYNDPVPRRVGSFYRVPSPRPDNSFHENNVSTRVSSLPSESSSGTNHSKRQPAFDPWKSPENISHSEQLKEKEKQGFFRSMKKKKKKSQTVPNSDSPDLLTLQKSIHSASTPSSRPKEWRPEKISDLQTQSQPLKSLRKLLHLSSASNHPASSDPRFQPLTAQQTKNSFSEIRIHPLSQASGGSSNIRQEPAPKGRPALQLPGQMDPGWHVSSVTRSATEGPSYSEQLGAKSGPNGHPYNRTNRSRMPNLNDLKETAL
# [4] = biological target: Calcium/calmodulin-dependent protein kinase kinase 1 ; CAMKK1 ; Q8N5S9 (Homo sapiens, UniProt Q8N5S9)
# [5] = biological target: Non-receptor tyrosine-protein kinase TYK2 ; TYK2 ; P29597 (Homo sapiens, UniProt P29597)
# Chain of Non-receptor tyrosine-protein kinase TYK2 ; TYK2 ; P29597 (P29597 whole entry): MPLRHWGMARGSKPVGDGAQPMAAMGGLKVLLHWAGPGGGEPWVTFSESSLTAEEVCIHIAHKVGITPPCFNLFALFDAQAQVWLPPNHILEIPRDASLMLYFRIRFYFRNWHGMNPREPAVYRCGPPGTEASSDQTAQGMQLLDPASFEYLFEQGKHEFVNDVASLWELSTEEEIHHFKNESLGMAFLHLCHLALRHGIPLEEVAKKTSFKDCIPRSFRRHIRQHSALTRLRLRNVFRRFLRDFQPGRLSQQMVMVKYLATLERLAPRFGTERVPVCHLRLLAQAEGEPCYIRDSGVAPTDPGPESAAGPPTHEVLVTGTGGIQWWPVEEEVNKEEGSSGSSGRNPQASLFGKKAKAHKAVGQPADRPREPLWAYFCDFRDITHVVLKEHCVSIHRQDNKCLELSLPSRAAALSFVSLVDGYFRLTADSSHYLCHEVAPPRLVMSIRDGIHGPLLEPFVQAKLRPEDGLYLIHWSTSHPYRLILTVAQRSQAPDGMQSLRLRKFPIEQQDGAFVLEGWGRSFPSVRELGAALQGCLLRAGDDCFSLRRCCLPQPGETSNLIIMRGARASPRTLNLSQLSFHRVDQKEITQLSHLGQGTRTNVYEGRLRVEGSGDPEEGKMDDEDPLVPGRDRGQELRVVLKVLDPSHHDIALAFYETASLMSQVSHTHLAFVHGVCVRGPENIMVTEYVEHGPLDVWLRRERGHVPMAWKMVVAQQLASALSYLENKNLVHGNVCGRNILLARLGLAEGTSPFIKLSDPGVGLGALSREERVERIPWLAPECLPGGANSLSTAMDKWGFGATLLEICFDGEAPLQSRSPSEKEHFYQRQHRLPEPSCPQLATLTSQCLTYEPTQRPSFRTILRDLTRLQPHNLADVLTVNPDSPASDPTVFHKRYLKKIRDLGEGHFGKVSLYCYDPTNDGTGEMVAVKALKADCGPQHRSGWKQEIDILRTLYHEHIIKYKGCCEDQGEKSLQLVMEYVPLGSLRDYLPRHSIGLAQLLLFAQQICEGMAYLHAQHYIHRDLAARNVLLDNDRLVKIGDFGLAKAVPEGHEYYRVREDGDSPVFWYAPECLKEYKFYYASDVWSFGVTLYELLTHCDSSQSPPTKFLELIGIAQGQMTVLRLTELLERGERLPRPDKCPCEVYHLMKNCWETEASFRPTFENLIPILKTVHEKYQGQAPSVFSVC
# [6] = biological target: Cyclin-dependent kinase 4 ; CDK4 ; P11802 (Homo sapiens, UniProt P11802)
# Chain of Cyclin-dependent kinase 4 ; CDK4 ; P11802 (P11802 whole entry, the tested form may be a part, one chain of several): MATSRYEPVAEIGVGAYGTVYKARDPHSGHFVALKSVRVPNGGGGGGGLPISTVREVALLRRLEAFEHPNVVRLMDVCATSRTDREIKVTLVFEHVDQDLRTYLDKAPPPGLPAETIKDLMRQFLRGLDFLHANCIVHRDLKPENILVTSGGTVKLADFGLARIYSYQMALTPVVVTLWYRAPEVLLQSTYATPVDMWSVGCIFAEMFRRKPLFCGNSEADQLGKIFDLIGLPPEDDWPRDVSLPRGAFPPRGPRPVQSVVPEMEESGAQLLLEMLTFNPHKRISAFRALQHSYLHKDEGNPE
# [7] = biological target: T2, Discoidin domain-containing receptor 2 ; DDR2 ; Q16832 (Homo sapiens, UniProt Q16832)
# T2 sequence (Q16832 1-855): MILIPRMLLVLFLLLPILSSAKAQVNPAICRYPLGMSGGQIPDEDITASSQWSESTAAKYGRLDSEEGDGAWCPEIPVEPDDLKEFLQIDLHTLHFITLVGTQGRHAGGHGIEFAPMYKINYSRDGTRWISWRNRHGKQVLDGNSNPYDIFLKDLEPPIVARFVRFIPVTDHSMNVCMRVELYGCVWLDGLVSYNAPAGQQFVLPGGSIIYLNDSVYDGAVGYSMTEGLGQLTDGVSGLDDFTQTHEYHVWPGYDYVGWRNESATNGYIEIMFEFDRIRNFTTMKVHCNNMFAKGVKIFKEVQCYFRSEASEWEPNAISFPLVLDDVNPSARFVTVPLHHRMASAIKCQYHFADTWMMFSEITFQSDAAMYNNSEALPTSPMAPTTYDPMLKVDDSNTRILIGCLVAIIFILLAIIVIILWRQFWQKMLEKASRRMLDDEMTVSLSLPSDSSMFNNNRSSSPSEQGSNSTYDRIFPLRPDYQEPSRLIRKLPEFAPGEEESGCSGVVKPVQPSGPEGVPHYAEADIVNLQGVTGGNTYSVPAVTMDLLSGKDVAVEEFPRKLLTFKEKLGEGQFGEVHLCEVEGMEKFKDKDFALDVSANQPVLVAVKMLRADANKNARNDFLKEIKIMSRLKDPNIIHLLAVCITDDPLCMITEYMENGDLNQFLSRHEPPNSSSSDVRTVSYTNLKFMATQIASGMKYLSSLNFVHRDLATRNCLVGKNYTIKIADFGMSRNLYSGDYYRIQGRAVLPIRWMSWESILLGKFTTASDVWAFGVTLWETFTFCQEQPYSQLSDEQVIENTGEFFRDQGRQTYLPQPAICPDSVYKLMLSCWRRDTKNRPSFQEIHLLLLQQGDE
# [8] = biological target: Cyclin-dependent kinase 9 ; CDK9 ; P50750 (Homo sapiens, UniProt P50750)
# [9] = biological target: Cyclin-dependent kinase 12 ; CDK12 ; Q9NYV4 (Homo sapiens, UniProt Q9NYV4)
# Chain of Cyclin-dependent kinase 12 ; CDK12 ; Q9NYV4 (Q9NYV4 whole entry, one chain of several): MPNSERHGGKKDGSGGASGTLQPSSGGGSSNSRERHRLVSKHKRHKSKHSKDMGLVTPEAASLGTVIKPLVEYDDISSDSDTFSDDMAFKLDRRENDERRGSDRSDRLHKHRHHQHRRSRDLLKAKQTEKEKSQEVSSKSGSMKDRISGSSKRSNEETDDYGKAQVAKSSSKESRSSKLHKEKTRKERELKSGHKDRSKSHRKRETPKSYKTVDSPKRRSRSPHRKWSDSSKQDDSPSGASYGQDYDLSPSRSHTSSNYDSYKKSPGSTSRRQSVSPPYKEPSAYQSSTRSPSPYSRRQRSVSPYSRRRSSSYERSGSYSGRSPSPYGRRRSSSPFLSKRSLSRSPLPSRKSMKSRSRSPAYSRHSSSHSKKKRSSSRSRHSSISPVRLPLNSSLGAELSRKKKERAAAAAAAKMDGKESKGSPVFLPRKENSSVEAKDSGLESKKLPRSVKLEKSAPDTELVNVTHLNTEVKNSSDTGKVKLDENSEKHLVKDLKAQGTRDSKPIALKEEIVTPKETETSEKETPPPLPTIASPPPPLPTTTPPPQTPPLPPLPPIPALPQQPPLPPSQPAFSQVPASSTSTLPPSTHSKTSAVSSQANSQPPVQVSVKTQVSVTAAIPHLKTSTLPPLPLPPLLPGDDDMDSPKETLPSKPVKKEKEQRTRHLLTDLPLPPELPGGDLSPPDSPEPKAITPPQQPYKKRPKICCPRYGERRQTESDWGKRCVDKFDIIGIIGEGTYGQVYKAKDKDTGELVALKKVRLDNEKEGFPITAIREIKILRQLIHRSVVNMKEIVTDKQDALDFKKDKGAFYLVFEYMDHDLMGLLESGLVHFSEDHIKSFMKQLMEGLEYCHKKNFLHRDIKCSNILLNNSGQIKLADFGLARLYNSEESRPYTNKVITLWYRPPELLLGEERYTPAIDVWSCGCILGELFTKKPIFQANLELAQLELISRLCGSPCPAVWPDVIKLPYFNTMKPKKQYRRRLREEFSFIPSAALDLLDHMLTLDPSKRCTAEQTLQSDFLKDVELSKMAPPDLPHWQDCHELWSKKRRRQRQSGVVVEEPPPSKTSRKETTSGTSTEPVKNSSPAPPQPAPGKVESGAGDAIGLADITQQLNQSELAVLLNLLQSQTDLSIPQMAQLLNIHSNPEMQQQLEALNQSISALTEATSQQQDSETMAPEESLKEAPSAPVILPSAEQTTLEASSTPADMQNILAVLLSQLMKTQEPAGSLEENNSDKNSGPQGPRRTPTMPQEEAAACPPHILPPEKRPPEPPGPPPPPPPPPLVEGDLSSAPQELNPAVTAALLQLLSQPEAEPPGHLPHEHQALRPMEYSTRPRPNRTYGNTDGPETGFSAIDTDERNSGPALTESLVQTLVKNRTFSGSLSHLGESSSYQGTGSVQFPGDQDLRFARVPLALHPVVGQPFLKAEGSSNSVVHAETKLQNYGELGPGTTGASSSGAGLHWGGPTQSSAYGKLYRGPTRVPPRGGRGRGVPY
# [10] = read-out: BAY-1251152 (10 µM) / %Intensity relative to DMSO
# [11] = read-out: BAY-1143572 (10 µM) / %Intensity relative to DMSO
# Chain of Cyclin-dependent kinase 13 ; CDK13 ; Q14004 (Q14004 whole entry, one chain of several): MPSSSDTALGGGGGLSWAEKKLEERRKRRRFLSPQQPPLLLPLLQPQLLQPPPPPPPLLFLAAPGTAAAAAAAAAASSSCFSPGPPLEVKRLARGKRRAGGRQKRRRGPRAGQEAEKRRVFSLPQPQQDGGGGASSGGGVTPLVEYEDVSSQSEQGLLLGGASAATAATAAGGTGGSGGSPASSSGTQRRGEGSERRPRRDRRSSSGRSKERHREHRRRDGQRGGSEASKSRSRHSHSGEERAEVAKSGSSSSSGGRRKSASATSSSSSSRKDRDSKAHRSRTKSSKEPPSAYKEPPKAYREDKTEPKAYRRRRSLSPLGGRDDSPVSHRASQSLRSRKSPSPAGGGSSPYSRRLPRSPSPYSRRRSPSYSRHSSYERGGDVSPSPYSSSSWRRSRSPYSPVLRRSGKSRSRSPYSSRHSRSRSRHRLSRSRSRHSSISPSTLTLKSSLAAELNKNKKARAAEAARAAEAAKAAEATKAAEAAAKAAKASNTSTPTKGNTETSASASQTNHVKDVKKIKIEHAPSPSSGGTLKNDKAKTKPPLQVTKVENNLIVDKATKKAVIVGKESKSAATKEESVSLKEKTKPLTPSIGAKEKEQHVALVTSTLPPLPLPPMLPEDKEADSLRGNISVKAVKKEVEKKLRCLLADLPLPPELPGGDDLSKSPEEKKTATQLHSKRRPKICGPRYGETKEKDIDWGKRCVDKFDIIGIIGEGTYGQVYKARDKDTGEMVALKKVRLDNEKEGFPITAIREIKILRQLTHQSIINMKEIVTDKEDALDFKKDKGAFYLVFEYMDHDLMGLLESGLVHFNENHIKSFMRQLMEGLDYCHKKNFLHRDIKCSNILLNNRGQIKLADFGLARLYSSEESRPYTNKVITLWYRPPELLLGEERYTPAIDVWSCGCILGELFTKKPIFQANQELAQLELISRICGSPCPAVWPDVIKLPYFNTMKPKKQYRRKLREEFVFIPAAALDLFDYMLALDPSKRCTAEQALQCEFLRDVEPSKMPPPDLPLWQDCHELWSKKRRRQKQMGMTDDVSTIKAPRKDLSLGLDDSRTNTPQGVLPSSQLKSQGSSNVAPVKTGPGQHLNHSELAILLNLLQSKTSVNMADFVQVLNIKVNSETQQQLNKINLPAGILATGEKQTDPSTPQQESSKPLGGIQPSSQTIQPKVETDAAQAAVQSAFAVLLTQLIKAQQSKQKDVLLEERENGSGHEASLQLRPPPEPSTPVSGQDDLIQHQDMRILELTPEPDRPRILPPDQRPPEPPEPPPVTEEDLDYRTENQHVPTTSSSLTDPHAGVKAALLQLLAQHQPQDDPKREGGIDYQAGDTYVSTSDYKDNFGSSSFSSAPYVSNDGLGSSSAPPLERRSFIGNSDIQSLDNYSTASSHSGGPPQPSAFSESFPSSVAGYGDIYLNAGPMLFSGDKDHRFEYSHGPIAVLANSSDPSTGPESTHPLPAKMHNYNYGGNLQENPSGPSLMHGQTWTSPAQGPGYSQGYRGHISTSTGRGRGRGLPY
"remaining activity at 10 µM [1, 10] [%]","remaining activity at 10 µM [2, 10] [%]","remaining activity at 10 µM [3, 10] [%]","remaining activity at 10 µM [4, 10] [%]","remaining activity at 10 µM [5, 10] [%]","remaining activity at 10 µM [6, 10] [%]","remaining activity at 10 µM [7, 10] [%]","remaining activity at 10 µM [8, 10] [%]","remaining activity at 10 µM [9, 10] [%]","remaining activity at 10 µM [1, 11] [%]","remaining activity at 10 µM [2, 11] [%]","remaining activity at 10 µM [3, 11] [%]","remaining activity at 10 µM [4, 11] [%]","remaining activity at 10 µM [5, 11] [%]","remaining activity at 10 µM [6, 11] [%]","remaining activity at 10 µM [7, 11] [%]","remaining activity at 10 µM [8, 11] [%]","remaining activity at 10 µM [9, 11] [%]",Structure (SMILES)
58.8,25.7,78.6,10.4,89.6,121,38.5,2.79,37.5,,,,,,,,,,COc1cc(F)ccc1-c1cc(Nc2cc(CS(C)(=N)=O)ccn2)ncc1F (stereo not drawn) [BAY-1251152]
,,,,,,,,,89.2,58.1,27.1,15.4,27.1,133,72.3,3.85,64.7,COc1cc(F)ccc1-c1ncnc(Nc2cccc(C[S@](C)(=N)=O)c2)n1 [BAY-1143572]
